From patent US20200016159A1, “N3-CYCLICALLY SUBSTITUTED THIENOURACILS AND USE THEREOF” (Bayer Aktiengesellschaft, priority 2016, published 2020) come the findings set out here.

This assay concerns the target T1, human adenosine A2b receptor (Homo sapiens, UniProt P29275).
T1 sequence (P29275 1-332): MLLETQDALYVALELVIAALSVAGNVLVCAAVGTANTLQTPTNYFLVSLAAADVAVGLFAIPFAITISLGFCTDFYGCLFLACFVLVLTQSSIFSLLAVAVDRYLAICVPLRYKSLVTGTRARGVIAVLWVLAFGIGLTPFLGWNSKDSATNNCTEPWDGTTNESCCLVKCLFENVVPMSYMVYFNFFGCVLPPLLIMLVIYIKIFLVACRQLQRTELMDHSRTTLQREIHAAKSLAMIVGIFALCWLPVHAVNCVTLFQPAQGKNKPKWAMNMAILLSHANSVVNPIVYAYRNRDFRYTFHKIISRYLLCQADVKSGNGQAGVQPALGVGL
In words: Cellular in vitro reporter gene test for A2b receptor activity (antagonism of NECA). It counts as cell-based. Further details: expressed in transfected cells; host or cells: CHO-K1 (Chinese hamster ovary) with CRE-luciferase reporter. To be noted: recombinant CHO-K1 cells, CRE-luciferase reporter, co-incubation with EC50 concentration of NECA, 3 hours. Put shortly:
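Antagonism measured as block of NECA-induced, cAMP/CRE-dependent luciferase expression in recombinant A2b CHO-K1 cells. NECA used at the EC50 set in a pre-experiment on each test day; luminescence detected after 3 h. Reported as IC50, partly averaged and rounded to two significant figures.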

Take `Cc1c(CN2CCNC2=NC#N)sc2c1c(=O)n(C1CC1)c(=O)n2CCCF` [Example 7, [1-{[3-Cyclopropyl-1-(3-fluoropropyl)-5-methyl-2,4-dioxo-1,2,3,4-tetrahydrothieno[2,3-d]pyrimidin-6-yl]methyl}imidazolidin-2-ylidene]cyanamide]: the IC50 is 18 nM.

Turning to `Cc1c(CN2CCNC2=O)sc2c1c(=O)n(C1CC1)c(=O)n2CC1CCC1` [Example 17, 1-(Cyclobutylmethyl)-3-cyclopropyl-5-methyl-6-[(2-oxoimidazolidin-1-yl)methyl]thieno[2,3-d]pyrimidine-2,4(1H,3H)-dione], the IC50 was 4.1 nM.

As to `COCCn1c(=O)n(C2CC2C(F)(F)F)c(=O)c2c(C)c(Cn3nc[nH]c3=O)sc21` (single isomer, unassigned) [Example 299, 1-(2-Methoxyethyl)-5-methyl-6-[(5-oxo-4,5-dihydro-H-1,2,4-triazol-1-yl)methyl]-3-[2-(trifluoromethyl)cyclopropyl]thieno[2,3-d]pyrimidine-2,4(1H,3H)-dione], the IC50 was 220 nM.

For the compound `COCCn1c(=O)n(C2(C)CC2)c(=O)c2c(C)c(CN3CCNC(=O)C3=O)sc21` [Example 73, 6-[(2,3-Dioxopiperazin-1-yl)methyl]-1-(2-methoxyethyl)-5-methyl-3-(1-methylcyclopropyl)thieno[2,3-d]pyrimidine-2,4(1H,3H)-dione], the IC50 came to 29 nM.

Take `Cc1c(CN2CCNC2=NC#N)sc2c1c(=O)n(C1CC1C)c(=O)n2CCOC(F)(F)F` (single isomer, unassigned) [Example 265, [1-({5-Methyl-3-(2-methylcyclopropyl)-2,4-dioxo-1-[2-(trifluoromethoxy)ethyl]-1,2,3,4-tetrahydrothieno[2,3-d]pyrimidin-6-yl}methyl)imidazolidin-2-ylidene]cyanamide]: the IC50 worked out at 1.3 nM.

Take `Cc1c(CN2CCNC2=S)sc2c1c(=O)n(C1CC1)c(=O)n2CCCF` [Example 6, 3-Cyclopropyl-1-(3-fluoropropyl)-5-methyl-6-[(2-thioxoimidazolidin-1-yl)methyl]thieno[2,3-d]pyrimidine-2,4(1H,3H)-dione]: the IC50 was found to be 12 nM.

As to `Cc1c(Cn2cc[nH]c2=O)sc2c1c(=O)n(C1CC1)c(=O)n2CCC(F)(F)F` [Example 14, 3-Cyclopropyl-5-methyl-6-[(2-oxo-2,3-dihydro-1H-imidazol-1-yl)methyl]-1-(3,3,3-trifluoropropyl)thieno[2,3-d]pyrimidine-2,4(1H,3H)-dione], the IC50 is 3.7 nM.

With `Cc1c(CN2CCNC2=O)sc2c1c(=O)n(C1COC1)c(=O)n2CCC(F)(F)F` [Example 130, 5-Methyl-3-(oxetan-3-yl)-6-[(2-oxoimidazolidin-1-yl)methyl]-1-(3,3,3-trifluoropropyl)thieno[2,3-d]pyrimidine-2,4(1H,3H)-dione], the IC50 is 14 nM.

Consider `CCC1CC1n1c(=O)c2c(C)c(CN3CCNC3=O)sc2n(CCOC)c1=O` (single isomer, unassigned) [Example 301, 3-(2-Ethylcyclopropyl)-1-(2-methoxyethyl)-5-methyl-6-[(2-oxoimidazolidin-1-yl)methyl]thieno[2,3-d]pyrimidine-2,4(1H,3H)-dione], for which the IC50 was 64 nM.

As for `COCCn1c(=O)n(C2(C)CCC2)c(=O)c2c(C)c(Cn3nc[nH]c3=O)sc21` [Example 143, 1-(2-Methoxyethyl)-5-methyl-3-(1-methylcyclobutyl)-6-[(5-oxo-4,5-dihydro-H-1,2,4-triazol-1-yl)methyl]thieno[2,3-d]pyrimidine-2,4(1H,3H)-dione], the IC50 was determined as 880 nM.

For `Cc1c(Cn2nc[nH]c2=O)sc2c1c(=O)n(C1CCC1)c(=O)n2CCC(F)(F)F` [Example 114, 3-Cyclobutyl-5-methyl-6-[(5-oxo-4,5-dihydro-1H-1,2,4-triazol-1-yl)methyl]-1-(3,3,3-trifluoropropyl)thieno[2,3-d]pyrimidine-2,4(1H,3H)-dione], the IC50 stood at 1.9 nM.
